Values quoted from earlier work, collected in patent US7429577B2, “Augmentation of atypical antipsychotic agent pharmacotherapy with chromium supplementation” (priority 2002, dated 2008).

Legend:
[1] = olanzapine treatment of patients
[2] = healthy volunteers, 200 μg chromium picolinate per day
[3] = obese Caucasian patients with type-II diabetes receiving sulphonylurea and metformin
[4] = humans, in particular subjects with plasma cholesterol above the 200 μg/ml level

| Compound | levels of insulin, leptin, blood lipids; insulin resistance [1] | LDL cholesterol decreased by [2] | fasting blood glucose decreased by [2] | glycosylated hemoglobin decreased by [2] | total cholesterol decreased by [2] | fasting insulin levels and glucose control [3] | blood lipids [4] |
| --- | --- | --- | --- | --- | --- | --- | --- |
| Cc1cc2c(s1)Nc1ccccc1N=C2N1CCN(C)CC1 [olanzapine] | elevated levels of insulin, leptin, and blood lipids, as well as insulin resistance |  |  |  |  |  |  |
| chromium picolinate |  | 11% | 24% | 19% | 13% | lowering fasting insulin levels without impairing glucose control | efficacious in lowering blood lipids |
